Experimental data reported in ChEMBL document CHEMBL1137068, “Design, synthesis and evaluation of bicyclic benzamides as novel 5-HT1F receptor agonists” (Bioorg Med Chem Lett, 2004).

Experiments:
[1] = biological target: T1, 5-hydroxytryptamine receptor 1B (Homo sapiens, UniProt P28222); experiment: In vitro binding affinity for human 5-hydroxytryptamine 1B receptor
[2] = biological target: T2, 5-hydroxytryptamine receptor 1F (Homo sapiens, UniProt P30939); experiment: In vitro binding affinity for human 5-hydroxytryptamine 1F receptor
T2 sequence (P30939 whole entry): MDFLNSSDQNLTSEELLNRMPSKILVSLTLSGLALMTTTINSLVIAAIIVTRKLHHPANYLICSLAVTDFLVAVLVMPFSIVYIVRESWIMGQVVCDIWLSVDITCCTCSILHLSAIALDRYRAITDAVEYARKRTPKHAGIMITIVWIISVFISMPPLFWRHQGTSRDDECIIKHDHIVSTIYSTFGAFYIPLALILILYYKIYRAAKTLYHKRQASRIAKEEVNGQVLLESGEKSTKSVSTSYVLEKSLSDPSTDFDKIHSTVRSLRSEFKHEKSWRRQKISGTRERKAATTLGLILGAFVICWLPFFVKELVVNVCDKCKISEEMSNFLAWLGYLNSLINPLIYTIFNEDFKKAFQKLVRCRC

[3] = biological target: T3, 5-hydroxytryptamine receptor 1D (Homo sapiens, UniProt P28221); experiment: In vitro binding affinity for human 5-hydroxytryptamine 1D receptor
[4] = biological target: T4, 5-hydroxytryptamine receptor 1A (Homo sapiens, UniProt P08908); experiment: In vitro binding affinity for human 5-hydroxytryptamine 1A receptor
T4 sequence (P08908 whole entry): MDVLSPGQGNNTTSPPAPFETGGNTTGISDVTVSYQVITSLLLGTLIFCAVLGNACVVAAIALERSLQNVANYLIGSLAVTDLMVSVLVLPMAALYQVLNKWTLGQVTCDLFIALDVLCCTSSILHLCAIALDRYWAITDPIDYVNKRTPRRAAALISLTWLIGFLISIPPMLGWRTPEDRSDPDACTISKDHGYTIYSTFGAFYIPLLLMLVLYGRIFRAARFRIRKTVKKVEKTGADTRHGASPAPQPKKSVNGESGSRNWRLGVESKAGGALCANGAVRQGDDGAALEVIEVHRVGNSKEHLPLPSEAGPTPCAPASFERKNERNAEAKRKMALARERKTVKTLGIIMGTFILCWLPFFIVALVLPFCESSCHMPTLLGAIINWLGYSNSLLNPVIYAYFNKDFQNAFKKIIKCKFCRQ

[5] = biological target: T5, 5-hydroxytryptamine receptor 1F (Homo sapiens) (UniProt P30939); experiment: Maximum stimulation of [35S]GTP-gamma-S, binding to human 5-hydroxytryptamine 1F receptor expressed in Mouse LM(tk-) cells relative to maximum effect of 5-HT; type: functional, cell-based
T5 sequence (whole entry): T2 sequence (P30939 whole entry)

Homo sapiens [6] = species on record: Homo sapiens; experiment: Ratio of binding affinity for 5-hydroxytryptamine 1A receptor to that of 5-hydroxytryptamine 1F receptor
[7] = biological target: T2, 5-hydroxytryptamine receptor 1F; experiment: Stimulation of [35S]GTP-gamma-S, binding to cloned human 5-hydroxytryptamine 1F receptor expressed in Mouse LM(tk-) cells; type: functional, cell-based
Homo sapiens [8] = species on record: Homo sapiens; experiment: Ratio of binding affinity for 5-hydroxytryptamine 1D receptor to that of 5-hydroxytryptamine 1F receptor
[9] = biological target: T1, 5-hydroxytryptamine receptor 1B; experiment: Inhibitory activity against human 5-hydroxytryptamine 1B receptor; settings: concentration not given here
[10] = biological target: T3, 5-hydroxytryptamine receptor 1D; experiment: Inhibitory activity against human 5-hydroxytryptamine 1D receptor; settings: concentration not given here
[11] = biological target: T1, 5-hydroxytryptamine receptor 1B; experiment: Inhibitory activity against 5-hydroxytryptamine 1B receptor at 10 uM
[12] = biological target: T3, 5-hydroxytryptamine receptor 1D; experiment: Inhibitory activity against 5-hydroxytryptamine 1D receptor at 10 uM

T1 sequence (P28222 whole entry): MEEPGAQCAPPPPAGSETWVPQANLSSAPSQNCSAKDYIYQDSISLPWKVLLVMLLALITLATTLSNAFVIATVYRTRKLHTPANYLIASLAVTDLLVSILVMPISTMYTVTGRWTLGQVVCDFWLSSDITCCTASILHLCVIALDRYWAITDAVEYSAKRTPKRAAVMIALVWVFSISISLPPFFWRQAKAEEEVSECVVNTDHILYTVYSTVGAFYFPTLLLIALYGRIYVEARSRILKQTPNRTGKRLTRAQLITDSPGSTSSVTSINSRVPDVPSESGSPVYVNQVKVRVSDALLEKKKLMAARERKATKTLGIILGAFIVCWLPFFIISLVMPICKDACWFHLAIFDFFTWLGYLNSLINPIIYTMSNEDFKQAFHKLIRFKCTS
T3 sequence (P28221 whole entry): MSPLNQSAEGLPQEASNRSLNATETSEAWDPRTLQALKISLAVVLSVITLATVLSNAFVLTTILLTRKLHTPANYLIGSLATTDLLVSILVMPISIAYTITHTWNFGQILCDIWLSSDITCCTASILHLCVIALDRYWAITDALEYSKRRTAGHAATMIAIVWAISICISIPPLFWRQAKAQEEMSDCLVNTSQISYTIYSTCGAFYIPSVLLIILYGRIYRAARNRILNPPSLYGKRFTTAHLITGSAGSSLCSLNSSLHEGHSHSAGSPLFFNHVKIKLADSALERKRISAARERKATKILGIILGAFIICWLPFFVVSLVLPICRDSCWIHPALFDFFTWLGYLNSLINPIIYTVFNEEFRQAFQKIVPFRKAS

Row | SMILES | Ki [2] [nM] | Ki [3] [nM] | Ki [4] [nM] | Selectivity ratio (Homo sapiens [6]) | other results
1 | CN1CCC(n2ccc3ccc(NC(=O)c4ccc(F)cc4)cc32)CC1 | 2.2 | 140 | 11 |  | Ki [1]: 260 nM
2 | CN1CCC(c2noc3ccc(NC(=O)c4ccc(F)cc4F)cc23)CC1 | 12 |  |  | 10 | Emax [5]: 73%; EC50 [7]: 470 nM
3 | CN1CCC(C2CNc3ccc(NC(=O)c4ccc(F)cc4)cc32)CC1 (stereo in doubt; 3) [listing 1 of 2 here] |  |  |  | 30 | Selectivity ratio (Homo sapiens [8]): 250; inhibition [9]: < 50%
4 | CN1CCC(N2CCc3ccc(NC(=O)c4ccc(F)cc4)cc32)CC1 | 4.8 | 210 | 12 |  | Ki [1]: 440 nM
5 | CN1CCC(C2CNc3ccc(NC(=O)c4ccc(F)cc4)cc32)CC1 (stereo in doubt; form 2) [listing 1 of 2 here] |  |  |  |  | inhibition [9]: < 50%
6 | CN1CCC(N2CNc3ccc(NC(=O)c4c(F)cc(F)cc4F)cc32)CC1 | 17 |  |  | 50 | Emax [5]: 95%; Selectivity ratio (Homo sapiens [8]): 120; EC50 [7]: 50 nM
7 | CN1CCC(n2ncc3ccc(NC(=O)c4ccc(F)cc4)cc32)CC1 | 4.1 |  | 310 |  | inhibition [10]: < 50%; Ki [1]: 2400 nM
8 | CN1CCC(c2noc3ccc(NC(=O)c4ccc(F)cc4Cl)cc23)CC1 | 3.6 |  |  | 30 | Emax [5]: 71%; EC50 [7]: 140 nM
9 | CN1CCC(C2CNc3ccc(NC(=O)c4ccc(F)cc4)cc32)CC1 (stereo in doubt; form 1) [listing 2 of 2 here] |  |  |  |  | inhibition [9]: < 50%
10 | CN1CCC(N2CNc3ccc(NC(=O)c4ccc(F)cc4Cl)cc32)CC1 | 13 |  |  | 70 | Emax [5]: 98%; Selectivity ratio (Homo sapiens [8]): 80; EC50 [7]: 63 nM
11 | CN1CCC(N2CCOc3ccc(NC(=O)c4ccc(F)cc4)cc32)CC1 | 520 | 2300 | 860 |  | inhibition [9]: < 50%

Now from value to compound, other results behind:

Row | Ki [2] [nM] | Ki [3] [nM] | Ki [4] [nM] | Selectivity ratio (Homo sapiens [6]) | SMILES | other results
12 | 9.6 |  | 250 |  | CN1CCC(C2CNc3ccc(NC(=O)c4ccc(F)cc4)cc32)CC1 (stereo in doubt; form 2) [listing 2 of 2 here] | 
13 | 3.9 | 3100 | 870 |  | CN1CCC(c2n[nH]c3ccc(NC(=O)c4ccc(F)cc4)cc23)CC1 | Ki [1]: 2300 nM
14 | 9 | 2300 | 240 |  | CN1CCC(C2CNc3ccc(NC(=O)c4ccc(F)cc4)cc32)CC1 (stereo in doubt; 3) [listing 2 of 2 here] | 
15 | 8.6 |  | 250 |  | CN1CCC(C2CNc3ccc(NC(=O)c4ccc(F)cc4)cc32)CC1 (stereo in doubt; form 1) [listing 1 of 2 here] | 
16 | 17 |  | 160 | 10 | CN1CCC(c2noc3ccc(NC(=O)c4ccc(F)cc4)cc23)CC1 | inhibition [11]: < 50%; inhibition [12]: < 50%
